From US20080194456A1, “Compositions And Methods Related To An Intestinal Inflammation And Uses Therefor” (The General Hospital Corporation, priority 2004, published 2008)

Key:
[1] = tested on: NOD1 mRNA expression in SW480 cells; assay: Northern blot analysis of NOD1 mRNA expression in SW480 cells treated with cytokines; format: cell-based, human; conditions: 10 ng/ml cytokine for six hours, Northern blot relative to GAPDH
Description: FIGS. 3A, B, C, D, E, and F are photographs showing Northern blots. […] Cells were treated with IFNγ for six hours. […] Cells were treated with 100 ng/ml IFNγ.
Regulation of NOD1 expression had not been described previously. […] The effect of IFNγ on NOD1 mRNA expression is time and concentration dependent manner as assessed by Northern blot analysis (FIG. 3C-3E).

[2] = tested on: grim-19 mRNA in Caco-2 cells; assay: Real time RT-PCR of grim-19 mRNA in Caco-2 cells; format: cell-based, human; conditions: for grim-19 mRNA levels: Caco-2 cells harboring plasmid encoding siRNA
Description: Total RNA of IEC lines were extracted using Trizol (INVITROGEN) according to the manufacturer's instructions. For reverse transcription, 2 μg of total RNA was transcribed with RT PCR reagents provided in the SUPERSCRIPT FIRST-STRAND SYNTHESIS SYSTEM (INVITROGEN). Real time RT-PCR was performed in an ABI Prism 7000 Sequence Detector using SYBR Green JumpStart™ detection system. Briefly, 50 ng of the reversed transcribed cDNA were used for each PCR reaction with 200 nM of forward and reverse primers. Primers used for PCR had the following sequences: Forward 5-[…]-3, Reverse 5-[…]-3 (GRIM-19, 194 bp); Forward 5-[…]-3, Feverse 5-[…]-3 (glyceraldehyde-3-phosphate dehydrogenase [GAPDH], 440 bp). The following PCR program was used: 50° C. for 2 minutes, then 95° C. for 10 minutes followed by 40 cycles of 95° C. for 15 seconds, 60° C. for 15 seconds and 72° C. for 15 seconds. The threshold cycle (CT) values were obtained for the reactions reflecting quantity of the template in the sample. GRIM-19 Delta CT (ΔCT) was calculated by subtracting the GAPDH CT value from the GRIM-19 CT value and thus, represented the relative quantity of the target molecule after normalizing with the internal standard GAPDH. The GRIM-19 ΔCT values of Caco-2 cells infected with Salmonella, or transfected with pcDNA4/HisMAX-GRIM 19 were expressed as the percentage of GRIM-19 ΔCT values of control Caco-2 cells.

[3] = tested on: grim-19 mRNA in HEK293 cells; assay: RT-PCR of grim-19 mRNA in HEK293 cells; format: cell-based, human; conditions: HEK293 cells transfected with NOD2 and siRNA
Description: (§1) FIGS. 19A and 19B are graphs showing that GRIM-19 acts downstream of NOD2 and is required from NF-κB activation. […] NF-κB activity was determined in the absence or presence of 1 μg of MDP-LD. grim-19 mRNA level was measured by RT-PCR using specific primers. […] After a two hour period of infection with S. typhimurium at MOI=10, invasive bacteria were quantified as described above. * p<0.05
Total RNA of IEC lines were extracted using Trizol (INVITROGEN) according to the manufacturer's instructions. For reverse transcription, 2 μg of total RNA was transcribed with RT PCR reagents provided in the SUPERSCRIPT FIRST-STRAND SYNTHESIS SYSTEM (INVITROGEN). Real time RT-PCR was performed in an ABI Prism 7000 Sequence Detector using SYBR Green JumpStart™ detection system. […] The threshold cycle (CT) values were obtained for the reactions reflecting quantity of the template in the sample. GRIM-19 Delta CT (ΔCT) was calculated by subtracting the GAPDH CT value from the GRIM-19 CT value and thus, represented the relative quantity of the target molecule after normalizing with the internal standard GAPDH. The GRIM-19 ΔCT values of Caco-2 cells infected with Salmonella, or transfected with pcDNA4/HisMAX-GRIM 19 were expressed as the percentage of GRIM-19 ΔCT values of control Caco-2 cells.

S. typhimurium [4] = conditions: for percentage of intracellular bacteria: transfected Caco-2 cells, two hour infection at MOI=10, one hour gentamicin, relative to untransfected Caco-2 cells = 100%, mean ±SEM
[5] = tested on: NOD2 mediated NF-κB activation; assay: NF-κB activation assay (luciferase reporter) in HEK293 cells; format: cell-based, human; conditions: HEK293 transfected with NOD2, 1 μg MDP-LD stimulation; relative to HEK293 transfected only with NOD2 or with pSUPER control vector
Description: as §1
HEK293 cells were transfected overnight with 1 ng of NOD2, 10 ng of grim-19 siRNA plus 1 ng of pIV luciferase reporter plasmid and renilla plasmid. At the same time, 1 μg of MDP-LD (Sigma) was added. After twenty-four hours, luciferase activity was measured using the Dual-Luciferase Reporter Assay System (Promega, Madison, Wis.) according to the manufacturer's instructions and normalized relative to renilla activity.

[6] = tested on: NOD2 mRNA expression in SW480 cells; assay: Northern blot analysis of NOD2 mRNA expression in SW480 cells; format: cell-based, human
Description: FIGS. 8A-8D are photographs of Northern blots showing the effect of cytokines on Nod2 mRNA expression in SW480 cells. FIG. 8A is a Northern blot analysis of Nod2 mRNA expression in SW480 cells treated with 10 ng/ml of IFNγ, TNFα, IL-1β, IL-4 and TGFβ for six hours. As a positive control for CARD15/NOD2, human PBMC was used. […] In each of FIGS. 8A-8C, expression of Nod2 is shown relative to GAPDH expression.
Regulation of NOD2 expression had not been previously characterized. In order to better understand how NOD2 expression might vary in the context of mucosal inflammation, the effects of cytokines on epithelial NOD2 expression were studied using the SW480 cell line.

S. typhimurium [7] = assay: Bacterial invasion assay in HEK293 cells; format: cell-based, Salmonella enterica serovar Typhimurium; conditions: MDP-LD stimulated, two hour infection at MOI=10, compared to untransfected HEK293
Description: as §1
Invasion assays were performed with Salmonella enterica serovar Typhimurium or Escherichia coli TOP10 (Invitrogen). Cell monolayers were seeded in 24-well tissue culture plate with 10^5 cells/well and incubated for 20 hours. Monolayers were then infected in 1 ml of cell culture medium without antibiotic and with heat-inactivated FCS at a multiplicity of infection (MOI) of 10 bacteria per epithelial cell. After a two hour incubation period at 37° C., the monolayers were washed two times with PBS. Fresh cell culture medium containing 100 μg/ml of gentamicin (Sigma) was then added for one hour to kill any extracellular bacteria. The epithelial cells were then lysed with 1% Triton X-100 in deionized water. Samples of cell lysates were diluted and plated onto Luria-Bertani agar plates to determine the number of colony forming units (cfu), which corresponds to the number of intracellular bacteria.

Caco-2 cells = Caco-2 cells transfected (overexpression), adenylate kinase release
[8] = tested on: NOD2 protein in SW480 cells; assay: Western blot of NOD2 protein in SW480 cells; format: cell-based, human; conditions: TNFα stimulation, time-dependent
Description: FIGS. 9A-9D depict NOD2 protein and its expression in SW480 cells. FIG. 9A is a schematic diagram showing the location of polypeptide sequences of NOD2 for immunization. FIGS. 9B, 9C, and 9D are photographs of Western blots. […] Untransfected COS7 cells were used as a negative control. […] Transiently transfected COS7 cells were immunoprecipitated with affinity purified (a.p.) anti-NOD2 antiserum (HM2559 a.p.), then immunoblotted with affinity purified biotinylated anti-NOD2 antiserum (b-HM2563 a.p.). […] As a positive control for NOD2 protein, lysates of COS7 cells transfected with pCMV FLAG-NOD2 was used.
Previous reported efforts had not been successful in detecting active NOD2 protein in vitro or in vivo. To detect the expression of active CARD15/NOD2 protein, anti-NOD2 sera (FIG. 9A) were generated. […] Increased production of TNFα has been noted in the mucosa of patients with Crohn's disease.

[9] = tested on: NOD1 protein in SW480 cells; assay: Immunoprecipitation / Western blot of NOD1 protein in SW480 cells; format: cell-based, human; conditions: 100 ng/ml IFNγ, 6-48 hours, immunoprecipitation and immunoblot
Description: FIGS. 4A and 4B are photographs of Western blots. […] Anti-HA monoclonal antibody and biotinylated anti-CARD4/NOD1 antiserum (HM3847) detected NOD1 protein in COS7 cells transiently transfected with pCl CARD4-HA. […] Lysates from COS7 cells transiently transfected with pCl CARD4-HA were used as positive control.
To investigate the expression of NOD1 protein, anti-NOD1 sera were generated. The specificity and the sensitivity were confirmed using lysates from COS7 cells transiently transfected with the HA tagged CARD4 expression plasmid, pCl CARD4-HA (FIG. 4A). Consistent with the regulation of mRNA expression, NOD1 protein was also augmented in SW480 cells by IFNγ stimulation (FIG. 4B).

human NOD1 promoter = assay: NOD1 promoter luciferase reporter assay in SW480 cells; format: cell-based; conditions: SW480 cells transfected with pGL-2128, 100 ng/ml IFNγ for sixteen hours
Description: FIGS. 5A-5D are panels showing that IFNγ activated the human NOD1 promoter. FIG. 5A is a schematic diagram depicting the CARD4/NOD1 gene. Three IRF-1 binding motifs (IRF-1A, IRF-1B, and IRF-1C) are indicated as black boxes (▪). FIG. 5B is a schematic diagram depicting pGL Nod 1-luciferase deletion mutants. FIGS. 5C and 5D are graphs showing luciferase activity in SW480 cells were transiently transfected with 500 ng/well of the indicated expression plasmid. Ten hours after transfection, cells were cultured for a further sixteen hours with 100 ng/ml of IFNγ and then luciferase activity was measured. Black bars indicate the presence of IFNγ. White bars indicate the control conditions.
To identify the transcriptional regulation of NOD1, a series of luciferase reporter vectors was constructed, containing up to 2,128 base pairs corresponding to the DNA sequence upstream of base 1 and extending 21 base pairs into the first exon of NOD1 (FIGS. 5A and 5B). Luciferase activity in SW480 cells transfected with a vector containing the entire 2,128 base pairs upstream DNA (pGL-2128) was 125±16 fold higher than that obtained with the empty pGL3 basic vector.

In the case of TGFβ, the “NOD1 mRNA expression” value [1] is reported as “did not affect”.

For “grim-19 control siRNA: grim-19 control siRNA (sequence 2, atcgaggacttcgaggctc), which did not affect grim-19 mRNA (guide ATCGAGGACTTCGAGGCTC; chemistry not given here) [reference compound]”, the “grim-19 mRNA levels” value [2] was “did not affect”, the “grim-19 mRNA level” value [3] was “did not knockdown” and the “percentage of intracellular bacteria” value (S. typhimurium [4]) was “not observed”. The NF-κB activation [5] was “no significant effect”.

C[C@@H]1C[C@@H]([C@H](O)CC2CC(=O)NC(=O)C2)C(=O)[C@@H](C)C1 [Cycloheximide] was tested, and the “second peak of NOD2 mRNA expression (at twenty-four hours)” value ([6]; SW480 cells stimulated with 10 ng/ml TNFα) was “inhibited”.

In the case of “IL-β: cytokine as printed in b202; figure legend b47 names IL-1β”, the “NOD1 mRNA expression” value [1] is reported as “did not affect”.

With IFN-α the “grim-19 mRNA expression” value ([2]; Caco-2 cells stimulated with RA, IFN-α or both, real time RT-PCR) was “did not show increased GRIM-19 expression” and the “percentage of intracellular bacteria / invasive ability of S. typhimurium” value (S. typhimurium [4]; Caco-2 cells stimulated with RA, IFN-α or both, two hour incubation) was “remained the same”.

“NOD2: NOD2 protein expressed from Flag-tagged mammalian expression vector pCMVFlag-NOD2” was tested, and the “invasive ability of S. typhimurium” value (S. typhimurium [7]) was “decreased” and the cell death (Caco-2 cells) was “did not induce cell death”.

“grim-19 siRNA-1: siRNA expressed from pSUPER vector, 19-residue sequence 1-gtgtgggatactgcgagta specific to human grim-19 cDNA (guide GTGTGGGATACTGCGAGTA; expressed from pSUPER vector)” was tested, and the “grim-19 mRNA levels” value [2] was “significantly decreased”, the “grim-19 mRNA level” value [3] was “significantly decreased” and the “invasive ability of S. typhimurium” value (S. typhimurium [7]) was “reversed”. For the same molecule, the “invasive ability of S. typhimurium in stimulated Caco-2 cells” value (S. typhimurium [4]; Caco-2 cells stimulated with RA and IFN-α, compared with non-stimulated cells) was “restored”, the “percentage of intracellular bacteria” value (S. typhimurium [4]) was 162.0%±43.8% and the NF-κB activation [5] was 50%.

With TNFα the NOD2 protein [8] was “upregulated” and the “NOD2 mRNA expression” value ([6]; SW480 cells, TNFα, concentration and time-dependent) was “up-regulated”.

B1: IL-4: cytokine added to SW480 cells (protein, UniProt P05112 25-153, looked up)
Interleukin-4: HKCDITLQEIIKTLNSLTEQKTLCTELTVTDIFAASKNTTEKETFCRAATVLRQFYSHHEKDTRCLGATAQQFHRHKQLIRFLKRLDRNLWGLAGLNSCPVKEANQSTLENFLERLKTIMREKYSKCSS
B1 was tested, and the “NOD1 mRNA expression” value [1] was “did not affect”.

B2: IFNγ: cytokine interferon gamma added to SW480 cells (protein, UniProt P01579 24-161, looked up)
Interferon gamma: QDPYVKEAENLKKYFNAGHSDVADNGTLFLGILKNWKEESDRKIMQSQIVSFYFKLFKNFKDDQSIQKSVETIKEDMNVKFFNSNKKKRDDFEKLTNYSVTDLNVQRKAIHELIQVMAELSPAAKTGKRKRSQMLFRG
In the case of B2, the “NOD1 mRNA expression” value [1] is reported as “augmented”, the NOD1 protein [9] is reported as “augmented” and the “increase of luciferase activity” value (human NOD1 promoter) is reported as 80%.

B3: TNFβ: cytokine as printed in b202; figure legend b47 names TNFα (protein, UniProt P01374 35-205, looked up)
Lymphotoxin-alpha: LPGVGLTPSAAQTARQHPKMHLAHSTLKPAAHLIGDPSKQNSLLWRANTDRAFLQDGFSLSNNSLLVPTSGIYFVYSQVVFSGKAYSPKATSSPLYLAHEVQLFSSQYPFHVPLLSSQKMVYPGLQEPWLHSMYHGAAFQLTQGDQLSTHTDGIPHLVLSPSTVFFGAFAL
B3 was tested, and the “NOD1 mRNA expression” value [1] was “did not affect”.
